In PubChem BioAssay (NCI):
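How tested: cells in 96-well plates exposed to compound for 48 hours at five concentrations. The concentration for 50% growth inhibition is given as GI50. TGI denotes the concentration required for complete inhibition of growth.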

Assays:
Test in all cases: NCI anticancer screen, dose series, 48 h
IGROV1 ovarian = system: IGROV1 ovarian
SNB-19 CNS = system: SNB-19 CNS
A498 renal = system: A498 renal
NCI-H23 lung = system: NCI-H23 lung
SNB-75 CNS = system: SNB-75 CNS
SK-OV-3 ovarian = system: SK-OV-3 ovarian
EKVX NSCLC = system: EKVX NSCLC
DU-145 prostate = system: DU-145 prostate
PC-3 prostate = system: PC-3 prostate
MDA-MB-435 = system: MDA-MB-435

| Structure (SMILES) | TGI (IGROV1 ovarian) | TGI (SNB-19 CNS) | TGI (A498 renal) | TGI (NCI-H23 lung) | TGI (SNB-75 CNS) | TGI (SK-OV-3 ovarian) | TGI (EKVX NSCLC) | GI50 (IGROV1 ovarian) | GI50 (DU-145 prostate) | TGI (DU-145 prostate) | GI50 (SNB-19 CNS) | GI50 (PC-3 prostate) | TGI (PC-3 prostate) | GI50 (MDA-MB-435) | TGI (MDA-MB-435) | GI50 (A498 renal) | GI50 (NCI-H23 lung) | GI50 (SNB-75 CNS) | GI50 (SK-OV-3 ovarian) | GI50 (EKVX NSCLC) |
| --- | --- | --- | --- | --- | --- | --- | --- | --- | --- | --- | --- | --- | --- | --- | --- | --- | --- | --- | --- | --- |
| N#CC1=C(c2ccccc2)OC2(N)OC(c3ccccc3)=C(C#N)C12C#N (stereo not given) | > 100 µM | > 100 µM | > 100 µM | > 100 µM | > 100 µM | > 100 µM | > 100 µM | – | – | – | – | – | – | – | – | – | – | – | – | – |
| COC(=O)[C@H](CCCCNC(=O)OCc1ccccc1)NC(=O)[C@@H](NC(=O)Nc1cc(C(F)(F)F)cc(C(F)(F)F)c1)C(C)C | > 10 µM | > 10 µM | > 10 µM | > 10 µM | > 10 µM | > 10 µM | – | > 10 µM | > 10 µM | > 10 µM | > 10 µM | > 10 µM | > 10 µM | > 10 µM | > 10 µM | > 10 µM | > 10 µM | > 10 µM | > 10 µM | – |
| COc1cccc(-c2nn(-c3ccccc3)cc2-c2ccnc(NCCCNS(=O)(=O)c3ccc(C(F)(F)F)cc3)c2)c1 | > 100 µM | – | > 100 µM | > 100 µM | > 100 µM | > 100 µM | > 100 µM | 10.7 µM | 22.7 µM | > 100 µM | – | 3.36 µM | > 100 µM | 4.2 µM | > 100 µM | 3.8 µM | 4.86 µM | 5.1 µM | 4.82 µM | 4.61 µM |
| O=C(OCc1ccccc1)n1cccc1 | > 100 µM | > 100 µM | > 100 µM | > 100 µM | > 100 µM | > 100 µM | > 100 µM | – | – | – | – | – | – | – | – | – | – | – | – | – |
| CC[Si](CC)(CC)OC1[C@@H](O[Si](CC)(CC)CC)[C@@H](CNC(=O)NC)O[C@H]1n1cnc2c(NC(=O)Nc3ccccc3)ncnc21 (stereo not given in full) | > 100 µM | > 100 µM | 6.38 µM | > 100 µM | > 100 µM | > 100 µM | – | 5.02 µM | 4.41 µM | > 100 µM | 5.28 µM | – | – | 3.17 µM | > 100 µM | 1.61 µM | 3.64 µM | 3.95 µM | 14.7 µM | – |
| CC(=N/NC(N)=S)/C(C)=N/NC(N)=S | > 100 µM | > 100 µM | – | > 100 µM | > 100 µM | – | > 100 µM | – | – | > 100 µM | – | – | > 100 µM | – | > 100 µM | – | – | – | – | – |
| O=C(Nc1ccc(Cl)cc1)N1CCN(c2ccc3nncn3n2)CC1 | > 100 µM | > 100 µM | 96.6 µM | > 100 µM | > 100 µM | > 100 µM | – | > 100 µM | 49.8 µM | > 100 µM | > 100 µM | 34.3 µM | > 100 µM | 64.3 µM | > 100 µM | 11.2 µM | 42.3 µM | > 100 µM | > 100 µM | – |
| CCOC(=O)CCn1cnc(N)n1 | > 100 µM | > 100 µM | – | > 100 µM | > 100 µM | > 100 µM | > 100 µM | – | – | – | – | – | – | – | – | – | – | – | – | – |
| C/C(=N\NC(=S)N1CCN(c2ccccn2)CC1)c1cccc2cccnc12 | > 100 µM | > 100 µM | 71.1 µM | > 100 µM | > 70.2 µM | 43.5 µM | > 45.3 µM | – | – | – | – | – | > 100 µM | – | > 100 µM | – | – | – | – | – |
| O=C(Nc1cc2cc([N+](=O)[O-])ccc2oc1=O)c1cccs1 | > 100 µM | > 100 µM | > 100 µM | – | 16.5 µM | – | > 100 µM | – | – | > 100 µM | – | – | > 100 µM | – | 70.8 µM | – | – | – | – | – |
| Cc1ccc2c(c1)C(O)(c1ccccc1)CCS2 (stereo not given) | 65.7 µM | > 100 µM | – | 89.9 µM | > 100 µM | > 100 µM | > 100 µM | – | – | > 100 µM | – | – | > 100 µM | – | 73.2 µM | – | – | – | – | – |
| C=C1C(O)C2CC(C)(C)C(=O)C2=C(CC(C)C)C12CC2 (stereo not given) | > 100 µM | > 100 µM | > 100 µM | > 100 µM | – | > 100 µM | > 100 µM | 55.6 µM | > 100 µM | > 100 µM | > 100 µM | > 100 µM | > 100 µM | > 100 µM | > 100 µM | > 100 µM | > 100 µM | – | > 100 µM | > 100 µM |
| N#CC(C#N)=C1CCC2C(=C(C#N)C#N)CCC12 (stereo not given) | > 100 µM | > 100 µM | > 100 µM | > 100 µM | > 100 µM | > 100 µM | > 100 µM | – | – | – | – | – | – | – | – | – | – | – | – | – |
| Cc1cn2c(/C=C3\C(=O)N(C)c4ccc(Cl)cc43)c(C)nc2s1 | > 100 µM | 92.9 µM | > 100 µM | 27.3 µM | 7.32 µM | – | > 100 µM | 2.99 µM | – | – | 4.25 µM | 0.99 µM | 4.38 µM | 1.94 µM | 5.66 µM | 10.8 µM | 3.71 µM | 2.52 µM | – | 9.9 µM |
| O=C1c2ccccc2C(=O)c2sc(Nc3ccc([N+](=O)[O-])cc3)nc21 | 26.2 µM | 25.7 µM | 34.8 µM | 9.77 µM | 21.1 µM | 36.8 µM | 23.2 µM | – | – | 33.5 µM | – | – | 19.9 µM | – | – | – | – | – | – | – |
| Cc1ccc(NC(=O)CCC(=O)C2Cc3ccccc3C2=O)cc1C (stereo not given) | > 100 µM | > 100 µM | > 100 µM | > 100 µM | > 100 µM | > 100 µM | > 100 µM | – | – | – | – | – | – | – | – | – | – | – | – | – |
| CC(C)(C)OC1=C(OC(C)(C)C)C(O)(c2ccc(Cl)cc2)C1=O (stereo not given) | > 100 µM | > 100 µM | > 100 µM | > 100 µM | > 100 µM | > 100 µM | > 100 µM | – | – | – | – | – | – | – | – | – | – | – | – | – |
| CN(C)CCNC(=O)c1cccc2c1nc(-c1ccncc1)c1ccccc12 | 20.1 µM | 27.2 µM | 7.67 µM | 13.1 µM | 15.8 µM | 24.7 µM | 10 µM | – | – | – | – | – | – | – | – | – | – | – | – | – |
| CC(=O)[CH-]C(=O)c1ccccc1.CC(=O)[CH-]C(=O)c1ccccc1.CC(=O)[CH-]C(=O)c1ccccc1.[Br-].[Zr+4] | > 100 µM | – | > 100 µM | > 100 µM | > 100 µM | > 100 µM | > 100 µM | > 100 µM | – | – | – | – | – | – | – | 24.9 µM | > 100 µM | 34 µM | 74.8 µM | 57.5 µM |
| O=C(COc1cccc(/C=C2\Oc3ccc4ccccc4c3C2=O)c1)c1ccc([N+](=O)[O-])cc1 | 40.7 µM | > 100 µM | > 100 µM | 80.8 µM | 53 µM | > 100 µM | > 100 µM | 6.76 µM | 12.1 µM | 29.3 µM | 34.1 µM | – | – | 28.9 µM | > 100 µM | > 100 µM | 21 µM | 18.9 µM | 64.2 µM | > 100 µM |
